Values joined by “and” are separate entries in the source; they are usually repeats but may differ in a detail not shown here. Identical values can stand only once. “Also recorded” adds a separate entry of the source. Like-named read-outs stand apart in the source and are kept apart here. Values belong to the molecule of their own block, whether it stands above or below them.
Tests used:
Gα12 = target: T1, Gα12 (Homo sapiens, UniProt Q03113); test: Gα12 luciferase reporter assay in hTERT-SRE immortalized airway smooth muscle cells, carbachol stimulated; assay type: cell-based; details: carbachol (CCh) stimulated, dose response
T1 sequence (Q03113 1-381): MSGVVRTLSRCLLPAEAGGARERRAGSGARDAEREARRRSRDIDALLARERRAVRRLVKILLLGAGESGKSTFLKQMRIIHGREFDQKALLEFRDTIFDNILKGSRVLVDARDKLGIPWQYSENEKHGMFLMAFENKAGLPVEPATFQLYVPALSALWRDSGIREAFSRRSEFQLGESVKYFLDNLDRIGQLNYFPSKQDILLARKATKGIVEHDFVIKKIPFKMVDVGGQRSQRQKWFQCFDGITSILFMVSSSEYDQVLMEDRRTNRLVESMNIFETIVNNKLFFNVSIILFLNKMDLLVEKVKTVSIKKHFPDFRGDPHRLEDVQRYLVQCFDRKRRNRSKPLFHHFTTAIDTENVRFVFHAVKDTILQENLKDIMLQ
Description: FIGS. 1A-1C show an experimental approach to the identification of Gα12 modulators using hTERT-SRE human telomerase reverse transcriptase immortalized airway smooth muscle cells. FIG. 1A: provides a schematic representation of Gα12-activated luciferase reporter. […] FIG. 1C: provides a detailed schematic showing the downstream effects of Gα12/13 activation and/or inhibition, wherein serum response element (SRE) may be detected by a luciferase assay, and pAKT and pMLC may be detected by Western blotting. A Gα12 luciferase reporter assay was used to evaluate the potential of analogues of compound 1 as bronchodilators (FIGS. 2A-2C), wherein the assay utilized hTERT-SRE telomerase reverse transcriptase immortalized airway smooth muscle cells. In certain embodiments, the Gα12 pathway is activated with carbachol (CCh), resulting in downstream transcription of a […]/luciferase fusion protein (FIG. 1A), and consequently, a fluorescence signal (FIG. 1B). In certain embodiments, detection of a decrease in observed fluorescent signal indicates inhibition of Gα12. Further, activation of the Gα12 pathway results in elevated levels of phosphorylated AKT (pAKT) and MLC (pMLC) (FIG. 1C). In certain embodiments, detection of a decrease in pAKT and/or pMLC indicates inhibition of Gα12.

[1] = system: MLC phosphorylation (pMLC); test: Immunoblot analysis of myosin light chain phosphorylation (pMLC) in airway smooth muscle cells; assay type: cell-based, human; details: for agonist specificity of the effect on pMLC activation: carbachol versus histamine; for potency and efficacy on carbachol-induced pMLC activation: relative to the parent compound 1 (BDF)
Method: (§1) Compounds 1-3 were evaluated for inhibition of AKT and MLC phosphorylation. As described elsewhere herein, phosphorylation of AKT and/or MLC can occur with activation of the Gα12 pathway. Accordingly, in certain embodiments, detection of a decrease in pAKT and/or pMLC indicates inhibition of Gα12.
(§2) The immunoblot analysis of phosphorylation of myosin light chain (pMLC) was used as a surrogate for ASM contraction. In parallel, phosphorylation of AKT was analogously assessed. AKT is a downstream substrate for phosphoinositide 3-kinase (PI3K) activity, can modulate the activation of the Gα12 pathway in primary human airway smooth muscle cells. These cells are the pivotal cells regulating bronchomotor tone in asthma and chronic obstructive pulmonary disease (COPD) which is emphysema or chronic bronchitis.
(§3) The analogues described herein were further assessed for potency and efficacy in inhibiting AKT and pMLC phosphorylation induced by contractile agonists, carbachol, or histamine. These contractile agonists are pivotal in causing airway smooth muscle contraction and airway obstruction in asthma and COPD.

[2] = system: AKT phosphorylation (pAKT); test: Immunoblot analysis of AKT phosphorylation (pAKT) in airway smooth muscle cells; assay type: cell-based, human
Method: as §1, §2, §3

ATR/ATRIP(h) = target: T2, ATR/ATRIP(h) (Homo sapiens, UniProt Q13535); test: Eurofins in vitro kinase activity assay; assay type: biochemical; details: read-out: ATR/ATRIP(h) kinase activity (human kinase inhibition data)
T2 construct: purchased Eurofins
T2 sequence (Q13535 whole entry): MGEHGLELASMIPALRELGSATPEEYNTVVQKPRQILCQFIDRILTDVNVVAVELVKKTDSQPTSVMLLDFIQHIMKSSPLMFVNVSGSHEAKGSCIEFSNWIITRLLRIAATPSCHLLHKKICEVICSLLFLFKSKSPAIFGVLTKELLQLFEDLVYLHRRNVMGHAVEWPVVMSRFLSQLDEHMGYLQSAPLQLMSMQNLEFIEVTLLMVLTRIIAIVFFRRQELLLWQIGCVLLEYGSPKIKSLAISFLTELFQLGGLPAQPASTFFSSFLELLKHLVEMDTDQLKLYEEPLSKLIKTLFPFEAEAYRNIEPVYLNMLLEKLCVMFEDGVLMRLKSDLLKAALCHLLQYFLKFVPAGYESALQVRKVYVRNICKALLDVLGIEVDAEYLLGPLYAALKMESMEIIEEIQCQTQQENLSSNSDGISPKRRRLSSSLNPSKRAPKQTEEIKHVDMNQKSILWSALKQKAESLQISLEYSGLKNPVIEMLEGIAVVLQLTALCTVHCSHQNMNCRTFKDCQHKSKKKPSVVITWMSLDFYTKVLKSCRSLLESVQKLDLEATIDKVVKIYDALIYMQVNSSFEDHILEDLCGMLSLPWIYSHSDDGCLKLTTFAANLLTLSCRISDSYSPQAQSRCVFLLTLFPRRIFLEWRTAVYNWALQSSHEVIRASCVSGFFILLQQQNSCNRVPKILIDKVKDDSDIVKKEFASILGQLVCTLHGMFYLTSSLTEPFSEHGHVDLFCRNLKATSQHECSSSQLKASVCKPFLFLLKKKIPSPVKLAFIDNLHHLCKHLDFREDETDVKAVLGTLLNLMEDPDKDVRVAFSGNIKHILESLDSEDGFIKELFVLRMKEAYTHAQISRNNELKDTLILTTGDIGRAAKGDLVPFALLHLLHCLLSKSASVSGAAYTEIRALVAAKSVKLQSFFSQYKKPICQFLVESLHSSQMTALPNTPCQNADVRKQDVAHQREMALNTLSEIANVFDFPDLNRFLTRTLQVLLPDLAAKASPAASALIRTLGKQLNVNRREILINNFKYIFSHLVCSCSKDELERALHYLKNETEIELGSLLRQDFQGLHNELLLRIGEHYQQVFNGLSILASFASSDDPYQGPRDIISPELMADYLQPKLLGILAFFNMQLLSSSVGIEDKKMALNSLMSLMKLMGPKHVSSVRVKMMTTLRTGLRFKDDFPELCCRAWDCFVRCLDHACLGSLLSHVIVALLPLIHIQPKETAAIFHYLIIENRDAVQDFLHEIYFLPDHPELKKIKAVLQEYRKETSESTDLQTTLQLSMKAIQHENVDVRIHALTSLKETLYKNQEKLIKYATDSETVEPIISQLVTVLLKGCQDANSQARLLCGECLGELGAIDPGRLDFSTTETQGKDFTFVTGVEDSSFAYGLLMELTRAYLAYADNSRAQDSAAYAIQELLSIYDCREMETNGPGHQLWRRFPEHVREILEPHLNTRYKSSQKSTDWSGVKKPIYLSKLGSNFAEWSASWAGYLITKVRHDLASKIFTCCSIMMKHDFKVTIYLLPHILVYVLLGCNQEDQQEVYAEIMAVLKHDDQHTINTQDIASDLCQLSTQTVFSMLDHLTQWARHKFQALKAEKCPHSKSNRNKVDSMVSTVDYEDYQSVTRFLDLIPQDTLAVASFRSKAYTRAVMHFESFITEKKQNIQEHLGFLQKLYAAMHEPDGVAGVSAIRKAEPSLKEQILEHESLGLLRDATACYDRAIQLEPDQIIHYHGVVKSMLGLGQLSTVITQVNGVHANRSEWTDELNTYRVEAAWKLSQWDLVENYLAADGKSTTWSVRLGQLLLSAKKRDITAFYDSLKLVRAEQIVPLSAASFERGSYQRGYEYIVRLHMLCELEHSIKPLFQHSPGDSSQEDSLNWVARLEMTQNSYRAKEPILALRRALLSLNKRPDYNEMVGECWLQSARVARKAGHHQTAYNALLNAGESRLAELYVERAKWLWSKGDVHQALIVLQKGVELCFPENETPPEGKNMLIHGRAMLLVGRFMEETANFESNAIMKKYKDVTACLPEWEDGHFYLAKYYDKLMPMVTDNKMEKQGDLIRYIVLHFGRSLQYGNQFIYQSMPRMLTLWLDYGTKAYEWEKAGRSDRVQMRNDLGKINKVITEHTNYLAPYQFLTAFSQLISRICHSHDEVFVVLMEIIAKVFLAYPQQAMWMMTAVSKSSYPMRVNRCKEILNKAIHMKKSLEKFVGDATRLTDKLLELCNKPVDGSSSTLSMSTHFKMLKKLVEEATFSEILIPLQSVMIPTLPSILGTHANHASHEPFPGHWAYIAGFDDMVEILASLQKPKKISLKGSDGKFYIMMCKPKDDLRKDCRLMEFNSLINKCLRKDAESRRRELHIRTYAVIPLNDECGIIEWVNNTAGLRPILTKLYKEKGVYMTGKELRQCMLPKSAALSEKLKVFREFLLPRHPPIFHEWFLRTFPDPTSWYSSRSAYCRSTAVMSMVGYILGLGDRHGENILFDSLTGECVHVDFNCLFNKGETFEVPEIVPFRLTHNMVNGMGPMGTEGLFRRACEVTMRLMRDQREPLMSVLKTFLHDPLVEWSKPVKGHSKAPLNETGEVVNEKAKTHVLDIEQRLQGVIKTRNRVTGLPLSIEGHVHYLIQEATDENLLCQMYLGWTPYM
T2 sequence (Q8WXE1 whole entry partner): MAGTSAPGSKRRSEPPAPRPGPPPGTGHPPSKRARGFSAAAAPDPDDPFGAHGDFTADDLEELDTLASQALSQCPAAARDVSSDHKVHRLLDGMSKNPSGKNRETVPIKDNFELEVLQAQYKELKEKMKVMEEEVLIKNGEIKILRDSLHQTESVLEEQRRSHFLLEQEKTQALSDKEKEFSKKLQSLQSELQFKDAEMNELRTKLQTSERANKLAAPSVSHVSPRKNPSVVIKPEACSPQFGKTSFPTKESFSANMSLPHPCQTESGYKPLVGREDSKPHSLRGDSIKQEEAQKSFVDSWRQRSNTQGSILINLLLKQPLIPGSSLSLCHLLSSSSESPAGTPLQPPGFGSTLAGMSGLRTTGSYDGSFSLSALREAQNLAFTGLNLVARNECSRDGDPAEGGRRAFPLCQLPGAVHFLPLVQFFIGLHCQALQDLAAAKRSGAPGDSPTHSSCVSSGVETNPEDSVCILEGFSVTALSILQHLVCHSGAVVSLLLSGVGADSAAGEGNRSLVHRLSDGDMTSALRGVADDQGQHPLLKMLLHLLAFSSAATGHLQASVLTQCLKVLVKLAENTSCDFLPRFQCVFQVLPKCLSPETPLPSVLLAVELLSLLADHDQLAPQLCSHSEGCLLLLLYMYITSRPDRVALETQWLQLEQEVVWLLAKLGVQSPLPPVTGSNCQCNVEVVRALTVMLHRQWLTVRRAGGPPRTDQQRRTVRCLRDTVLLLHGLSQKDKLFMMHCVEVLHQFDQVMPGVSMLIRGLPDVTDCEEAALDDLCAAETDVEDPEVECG
Method: (§4) Using the Eurofins™ platform, a kinase activity assay was performed to identify human kinases inhibited by compound 1. To determine the effects of the compound on kinase activity, varying concentrations of compound 1 (1, 10 and 100 μM) were used with one technical replicate in a standard in vitro kinase activation assay.
(§5) This platform was used to determine the effects of compound 1 on the activity of 113 unique human kinases. Thresholds for kinase activity of interest was set at less than or equal to 60% […] (i.e., for antagonists) or enhanced activity at or above 140% (i.e., for agonists). Further, the validity of the results were confirmed by the occurrence of a dose-dependent response.

Fms(h) = target: T3, Fms(h) (Homo sapiens, UniProt P07333); test: Eurofins in vitro kinase activity assay; assay type: biochemical; details: read-out: Fms(h) kinase activity (human kinase inhibition data)
T3 construct: purchased Eurofins
T3 sequence (P07333 20-972): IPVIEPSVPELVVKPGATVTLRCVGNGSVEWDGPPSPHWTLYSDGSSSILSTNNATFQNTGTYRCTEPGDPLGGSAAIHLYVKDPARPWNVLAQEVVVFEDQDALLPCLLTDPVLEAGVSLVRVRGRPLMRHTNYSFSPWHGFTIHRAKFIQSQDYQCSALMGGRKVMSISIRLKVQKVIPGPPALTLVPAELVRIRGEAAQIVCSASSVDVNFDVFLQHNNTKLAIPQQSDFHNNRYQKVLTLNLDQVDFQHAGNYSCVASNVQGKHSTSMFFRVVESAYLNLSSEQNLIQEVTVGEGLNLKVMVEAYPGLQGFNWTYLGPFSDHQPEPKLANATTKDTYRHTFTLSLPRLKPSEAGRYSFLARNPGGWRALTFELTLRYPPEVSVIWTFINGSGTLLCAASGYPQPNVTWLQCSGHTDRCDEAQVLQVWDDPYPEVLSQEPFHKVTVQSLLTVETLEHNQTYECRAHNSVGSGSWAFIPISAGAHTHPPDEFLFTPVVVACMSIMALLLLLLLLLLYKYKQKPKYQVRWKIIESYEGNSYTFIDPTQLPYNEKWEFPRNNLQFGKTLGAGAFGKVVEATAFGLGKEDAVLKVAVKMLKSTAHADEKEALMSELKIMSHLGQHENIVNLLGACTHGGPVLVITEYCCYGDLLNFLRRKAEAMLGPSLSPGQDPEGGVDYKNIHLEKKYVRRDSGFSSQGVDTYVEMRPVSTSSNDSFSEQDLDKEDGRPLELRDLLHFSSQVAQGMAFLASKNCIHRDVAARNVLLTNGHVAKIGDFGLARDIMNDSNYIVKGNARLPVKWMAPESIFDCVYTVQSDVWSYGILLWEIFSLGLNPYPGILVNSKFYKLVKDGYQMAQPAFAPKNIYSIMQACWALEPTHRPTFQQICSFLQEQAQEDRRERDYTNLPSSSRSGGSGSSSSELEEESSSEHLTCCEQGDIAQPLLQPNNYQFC
Method: as §4, §5

IGF-1R(h) = target: T4, IGF-1R(h) (Homo sapiens, UniProt P08069); test: Eurofins in vitro kinase activity assay; assay type: biochemical; details: read-out: IGF-1R(h) kinase activity (human kinase inhibition data)
T4 construct: purchased Eurofins
Method: as §4, §5

MAPKAP-K2(h) = target: T5, MAPKAP-K2(h) (Homo sapiens, UniProt P49137); test: Eurofins in vitro kinase activity assay; assay type: biochemical
T5 construct: purchased Eurofins
T5 sequence (P49137 whole entry): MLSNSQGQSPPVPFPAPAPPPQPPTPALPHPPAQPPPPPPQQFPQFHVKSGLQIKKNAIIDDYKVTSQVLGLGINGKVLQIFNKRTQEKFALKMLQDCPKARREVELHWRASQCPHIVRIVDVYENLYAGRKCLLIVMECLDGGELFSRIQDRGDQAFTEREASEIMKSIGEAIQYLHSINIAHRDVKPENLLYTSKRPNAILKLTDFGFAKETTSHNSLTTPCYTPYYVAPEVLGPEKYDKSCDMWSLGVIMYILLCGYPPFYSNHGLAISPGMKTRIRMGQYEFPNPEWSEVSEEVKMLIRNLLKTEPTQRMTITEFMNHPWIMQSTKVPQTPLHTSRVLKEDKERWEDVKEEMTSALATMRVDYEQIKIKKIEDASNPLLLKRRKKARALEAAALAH
Method: as §4, §5

PI3Kδ = target: T6, PI3Kδ (Homo sapiens, UniProt O00329); test: Eurofins in vitro kinase activity assay; assay type: biochemical
T6 construct: purchased Eurofins
Method: as §4, §5

PRAK(h)/MAPKAPK5 = target: T7, PRAK(h)/MAPKAPK5 (Homo sapiens, UniProt Q8IW41); test: Eurofins in vitro kinase activity assay; assay type: biochemical
T7 construct: purchased Eurofins
T7 sequence (Q8IW41 1-473): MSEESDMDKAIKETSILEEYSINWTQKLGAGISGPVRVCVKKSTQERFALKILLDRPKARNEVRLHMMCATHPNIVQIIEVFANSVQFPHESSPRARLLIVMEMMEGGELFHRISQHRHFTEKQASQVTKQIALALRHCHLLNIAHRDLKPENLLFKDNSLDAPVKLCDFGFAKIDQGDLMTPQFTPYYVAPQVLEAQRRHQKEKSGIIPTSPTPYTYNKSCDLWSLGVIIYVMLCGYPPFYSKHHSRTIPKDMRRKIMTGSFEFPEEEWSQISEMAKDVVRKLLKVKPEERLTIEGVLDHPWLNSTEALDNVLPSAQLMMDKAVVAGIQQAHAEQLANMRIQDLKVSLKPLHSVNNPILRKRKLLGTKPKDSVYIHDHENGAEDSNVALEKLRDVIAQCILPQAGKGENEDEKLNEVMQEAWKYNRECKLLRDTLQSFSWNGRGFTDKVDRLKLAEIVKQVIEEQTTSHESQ
Method: as §4, §5

TrkA(h) = target: T8, TrkA(h) (Homo sapiens, UniProt P04629); test: Eurofins in vitro kinase activity assay; assay type: biochemical; details: read-out: TrkA(h) kinase activity (human kinase inhibition data)
T8 construct: purchased Eurofins
Method: as §4, §5

mTOR(h) = target: T9, mTOR(h) (Homo sapiens, UniProt P42345); test: Eurofins in vitro kinase activity assay; assay type: biochemical; details: read-out: mTOR(h) kinase activity (human kinase inhibition data)
T9 construct: purchased Eurofins
Method: as §4, §5

113 unique human kinases = test: Eurofins kinase activity panel; assay type: biochemical; details: 1, 10 and 100 μM
Method: as §4, §5

[3] = compound at 100 μM (FIGS. 4A-4B)
[4] = compound at 100 μM (FIGS. 4C-4D)

SMILES: CC(C)(NC(=O)Cc1ccccc1F)C(=O)N1CCOCC(Cc2cccc3ccncc23)C1 (centres unmarked) [BDH, 2-(2-fluorophenyl)-N-(1-(6-(isoquinolin-8-ylmethyl)-1,4-oxazepan-4-yl)-2-methyl-1-oxopropan-2-yl)acetamide, reference compound]
- modulation of Gα12 luciferase reporter signal (agonist/antagonist) (Gα12): dose-dependent activation

SMILES: Cc1ccc(Cc2ccc(C3CN(C(=O)c4cnc(C)cn4)CCO3)nc2)cc1 (centres unmarked) [Compound 2, (2-(5-(4-methylbenzyl)pyridin-2-yl)morpholino)(5-methylpyrazin-2-yl)methanone]
- modulation of Gα12 luciferase reporter signal (agonist/antagonist) (Gα12): Gα12 antagonists
- agonist specificity of the effect on pMLC activation [1]: specific for carbachol rather than histamine
- potency and efficacy on carbachol-induced pMLC activation [1]: improved potency and efficacy

SMILES: CCN1CCC(CC(=O)N2CCOC(c3ccc(-c4cccc(OC)c4)cn3)C2)CC1 (centres unmarked) [Compound 3, 2-(1-ethylpiperidin-4-yl)-1-(2-(5-(3-methoxyphenyl)pyridin-2-yl)morpholino)ethan-1-one]
- modulation of Gα12 luciferase reporter signal (agonist/antagonist) (Gα12): Gα12 antagonists
- pAKT ([2]; compound at 10 μM (FIGS. 4A-4B)): decrease; also recorded: significantly decreased
- pAKT [2, 3]: decrease; also recorded: significantly decreased
- agonist specificity of the effect on pMLC activation [1]: specific for carbachol rather than histamine
- pMLC ([1]; compound at 10 μM (FIGS. 4C-4D)): decrease; also recorded: significantly decreased
- pMLC [1, 4]: decrease; also recorded: significantly decreased
- potency and efficacy on carbachol-induced pMLC activation [1]: improved potency and efficacy

SMILES: FC(F)(F)c1cccc(Cc2ccc(C3CN(Cc4cccnc4)CCO3)nc2)c1 (centres unmarked) [Compound 5, 4-(pyridin-3-ylmethyl)-2-(5-(3-(trifluoromethyl)benzyl)pyridin-2-yl)morpholine]
- inhibition of AKT phosphorylation (pAKT) by agonists ([2]; contractile agonists carbachol or histamine): inactive
- agonist-induced pMLC activation ([1]; contractile agonists carbachol or histamine, FIGS. 6A-6B): inactive

- activity at 1 µM (ATR/ATRIP(h); compound at 1 μM): 101%
- activity at 10 µM (ATR/ATRIP(h); compound at 10 μM): 91%
- activity at 100 µM (ATR/ATRIP(h); compound at 100 μM): 65%
- activity at 1 µM (Fms(h); compound at 1 μM): 95%
- activity at 10 µM (Fms(h); compound at 10 μM): 94%
- activity at 100 µM (Fms(h); compound at 100 μM): 64%
- activity at 1 µM (IGF-1R(h); compound at 1 μM): 103%
- activity at 10 µM (IGF-1R(h); compound at 10 μM): 91%
- activity at 100 µM (IGF-1R(h); compound at 100 μM): 61%
- MAPKAP-K2 inhibition, dose dependence (MAPKAP-K2(h); 1, 10 and 100 μM): inhibited in a dose-dependent manner
- activity at 1 µM (MAPKAP-K2(h); compound at 1 μM, read-out: MAPKAP-K2(h) kinase activity (human kinase inhibition data)): 90%
- activity at 10 µM (MAPKAP-K2(h); compound at 10 μM, read-out: MAPKAP-K2(h) kinase activity (human kinase inhibition data)): 77%
- activity at 100 µM (MAPKAP-K2(h); compound at 100 μM, read-out: MAPKAP-K2(h) kinase activity (human kinase inhibition data)): 65%
- Aggregate Mean (of raw counts) (PI3Kδ; compound at 1 μM): 16175
- activity at 1 µM (PI3Kδ; compound at 1 μM, read-out: Kinase Activity (%), mean of replicates): 91%
- Raw Counts (PI3Kδ; compound at 1 μM, single replicates): 15209.80926 and 17139.70182
- Kinase Activity (%) (PI3Kδ; compound at 1 μM, single replicates, 1 µM): 86%
- activity at 1 µM (PI3Kδ; compound at 1 μM, single replicates, read-out: Kinase Activity (%)): 95%
- Aggregate Mean (of raw counts) (PI3Kδ; compound at 10 μM): 15960
- activity at 10 µM (PI3Kδ; compound at 10 μM, read-out: Kinase Activity (%), mean of replicates): 92%
- Raw Counts (PI3Kδ; compound at 10 μM, single replicates): 15948.27586 and 15971.06288
- activity at 10 µM (PI3Kδ; compound at 10 μM, single replicates, read-out: Kinase Activity (%)): 92%
- Aggregate Mean (of raw counts) (PI3Kδ; compound at 100 μM): 17900
- activity at 100 µM (PI3Kδ; compound at 100 μM, read-out: Kinase Activity (%), mean of replicates): 83%
- Raw Counts (PI3Kδ; compound at 100 μM, single replicates): 17495.26814 and 18305.46265
- Kinase Activity (%) (PI3Kδ; compound at 100 μM, single replicates, 100 µM): 81%
- activity at 100 µM (PI3Kδ; compound at 100 μM, single replicates, read-out: Kinase Activity (%)): 85%
- PRAK/MAPKAPK5 inhibition, dose dependence (PRAK(h)/MAPKAPK5; 1, 10 and 100 μM): inhibited in a dose-dependent manner
- activity at 1 µM (PRAK(h)/MAPKAPK5; compound at 1 μM, read-out: PRAK(h)/MAPKAPK5 kinase activity (human kinase inhibition data)): 115%
- activity at 10 µM (PRAK(h)/MAPKAPK5; compound at 10 μM, read-out: PRAK(h)/MAPKAPK5 kinase activity (human kinase inhibition data)): 92%
- activity at 100 µM (PRAK(h)/MAPKAPK5; compound at 100 μM, read-out: PRAK(h)/MAPKAPK5 kinase activity (human kinase inhibition data)): 40%
- activity at 1 µM (TrkA(h); compound at 1 μM): 106%
- activity at 10 µM (TrkA(h); compound at 10 μM): 123%
- activity at 100 µM (TrkA(h); compound at 100 μM): 41%
- activity at 1 µM (mTOR(h); compound at 1 μM): 103%
- activity at 10 µM (mTOR(h); compound at 10 μM): 104%
- activity at 100 µM (mTOR(h); compound at 100 μM): 70%
- specificity: effect on the overwhelming majority of the 113 human kinases (113 unique human kinases): little to no effect
- number of kinases exhibiting dose dependent inhibition (113 unique human kinases; of 113 human kinases): 7
- number of kinases with agonism observed (113 unique human kinases; of 113 human kinases, none relevant in human airway smooth muscle): 4
SMILES: O=C(CCn1ncc2ccccc21)N1CCOC(c2ccc(Cc3ccc(F)cc3)cn2)C1 (centres unmarked) [compound 1, 1-(2-(5-(4-fluorobenzyl)pyridin-2-yl)morpholino)-3-(1H-indazol-1-yl)propan-1-one]
- modulation of Gα12 luciferase reporter signal (agonist/antagonist) (Gα12): inhibition
- pAKT [2, 3]: decreased
- pMLC [1, 4]: decreased

Reference: patent publication US20260265220A1, “GALPHA12 INHIBITORS AND METHODS USING SAME” (RUTGERS, THE STATE UNIVERSITY OF NEW JERSEY, priority 2022, published 2026)
